# Test results from publication PMC10652874, “Investigation into the mechanism of action of the antimicrobial peptide epilancin 15X” (Frontiers in Microbiology, 2023).
# System: S. carnosus TM300
# Experiment: RNAseq differential gene expression
# Format: cell-based, Staphylococcus carnosus
# Method: For the RNAseq experiments, epilancin was added at sub-lethal concentration (0.5x MIC) to S. carnosus TM300 once the cultures reached an OD600 of 0.6. RNA was extracted 40 min after the treatment, using a FastRNA Pro Blue kit (MP Biomedicals). Both treated and parallel untreated samples were collected at the same time. Sequencing was performed at the Carver Biotechnology Center (UIUC). For RNAseq analysis, gene counts were read in to R (v3.1.1; [Team, 2014]), and 14/2441 genes were removed because they had fewer than 32 total counts across the six samples. edgeR’s (v3.6.7) TMM normalization ([Robinson and Oshlack, 2010]) plus negative binomial generalized log-linear model ([McCarthy et al., 2012]) was used to test for differential expression between treated and untreated groups, while accounting for pairing of U and T replicates from three different cultures. p-values were adjusted using the false discovery rate method ([Benjamini and Hochberg, 1995]).
# [1] = AraC family transcriptional regulator
# [2] = S. carnosus TM300, 0.5x MIC, RNA extracted 40 min after treatment
substance,measurement,setting,value
Epilancin 15X,fold_change Sca_0118,,2.03
same,fold_change Sca_0226,,2.6
same,fold_change Sca_0277,,4.82
same,fold_change Sca_0326,,2.89
same,fold_change Sca_0702,,3.4
same,fold_change Sca_1839,,2.65
same,fold_change Sca_0283,4-aminobutyrate aminotransferase,2.6
same,fold_change Sca_1048,5-bromo-4-chloroindolyl phosphate hydrolysis protein XpaC,2.07
same,fold_change rpsN,30S ribosomal protein S14,0.49
same,fold_change rplS,50S ribosomal protein L19,0.5
same,fold_change Sca_1439,ABC transporter ATP-binding protein,2.23
same,fold_change Sca_0292,ATP-binding cassette transporter A,2.29
same,fold_change clpP,ATP-dependent Clp protease proteolytic subunit,5.08
same,fold_change recG,ATP-dependent DNA helicase RecG,2.72
same,fold_change Sca_0180,ATP:guanido phosphotransferase,4.91
same,fold_change Sca_0313,[1],2.06
same,fold_change Sca_0314,[1],2.39
same,fold_change Sca_0315,[1],2.4
same,fold_change Sca_0113,ArsR family transcription regulator,4.25
same,fold_change clpB,ClpB chaperone,10.1
same,fold_change clpC,ClpC ATPase family protein,4.95
same,fold_change dltA,D-alanine--poly(phosphoribitol) ligase subunit 1,2.2
same,fold_change dltC,D-alanine--poly(phosphoribitol) ligase subunit 2,2.03
same,fold_change dnaN,DNA polymerase III subunit beta,2.14
same,fold_change dinB,"DNA polymerase IV, gene dinP",2.92
same,fold_change dltB,DltB membrane protein,2.19
same,fold_change Sca_2272,Glycerate kinase,2.24
same,fold_change Sca_0776,Glyoxalase family protein,2.76
same,fold_change hslO,"Hsp33-like chaperonin, gene hsp33",2.39
same,fold_change Sca_0214,LD-carboxypeptidase family protein,0.5
same,fold_change lexA,LexA repressor,2.01
same,fold_change Sca_0115,LysR family transcriptional regulator,2.11
same,fold_change moaD,MoaD,2.46
same,fold_change moaE,MoaE,2.53
same,fold_change mobB,MobB,2.72
same,fold_change moaA,Molybdenum cofactor biosynthesis protein A,2.82
same,fold_change nanA,N-acetylneuraminate lyase,2.13
same,"expression of vraR, upregulated compared to untreated control",[2],8 fold
same,"expression of vraS, upregulated compared to untreated control",[2],8 fold
same,fold_change Sca_0453,TOPRIM domain-containing protein,3.05
same,fold_change Sca_2234,TetR family transcriptional regulator,2.13
same,fold_change Sca_2397,ThiJ/PfpI family protein,4.76
same,fold_change gtaB,UTP-glucose-1-phosphate uridyltransferase,0.5
same,fold_change Sca_0065,acetoin reductase,4.35
same,fold_change mecA,"adaptor protein, gene SCA_0598",2.48
same,fold_change glpD,aerobic glycerol-3-phosphate dehydrogenase,2.81
same,fold_change Sca_2335,"alcohol dehydrogenase, zinc-containing, gene gutB",2.81
same,fold_change ahpC,alkyl hydroperoxide reductase subunit C,5.8
same,fold_change ahpF,alkyl hydroperoxide reductase subunit F,5.74
same,fold_change lrgB,antiholin-like protein LrgB,5.42
same,fold_change capM,capsular polysaccharide synthesis enzyme Cap5M,0.49
same,fold_change katA,catalase,2.04
same,fold_change dnaJ,chaperone protein DnaJ,2.06
same,fold_change uvrA,excinuclease ABC subunit A,3.06
same,fold_change uvrB,excinuclease ABC subunit B,3.63
same,fold_change uvrC,excinuclease ABC subunit C,2.28
same,fold_change Sca_1475,formate dehydrogenase,2.72
same,fold_change fdh,formate dehydrogenase,3.34
same,fold_change,"gene SCA_0282 (thrS), threonyl-tRNA synthetase",0.44
same,fold_change,"gene Sca_0027 (ssb), putative single-strand DNA-binding protein",0.48
same,fold_change,"gene Sca_0095, putative autolysin with LysM domain",0.47
same,fold_change,"gene Sca_0210, Choloylglycine hydrolase family protein",0.42
same,fold_change,"gene Sca_0261, FecCD transport family protein",0.48
same,fold_change,"gene Sca_0273, putative lipoprotein, AdhesinB family protein",0.41
same,fold_change,"gene Sca_0274, putative ABC transporter permease",0.44
same,fold_change,"gene Sca_0348 (fruA), putative fructose specific permease",0.49
same,fold_change,"gene Sca_0374, putative proton-dependent oligopeptide transporter",0.43
same,fold_change,"gene Sca_0418, putative branched-chain amino acid transport system II carrier protein",0.4
same,fold_change,"gene Sca_0437 (csp), putative cold-shock protein",0.43
same,fold_change,"gene Sca_0445, hypothetical protein",0.43
same,fold_change,"gene Sca_0446, hypothetical protein",0.45
same,fold_change,"gene Sca_0547, cytosol aminopeptidase family protein",0.42
same,fold_change,"gene Sca_0617, hypothetical protein",0.45
same,fold_change,"gene Sca_0626, putative sodium transport protein",0.4
same,fold_change,gene Sca_0661,0.41
same,fold_change,"gene Sca_0724, putative DNA binding protein",0.44
same,fold_change,"gene Sca_0743, hypothetical protein",0.4
same,fold_change,"gene Sca_0749, hypothetical protein",0.48
same,fold_change,"gene Sca_0919, hypothetical protein",0.44
same,fold_change,"gene Sca_0920, hypothetical protein",0.46
same,fold_change,"gene Sca_0975, putative amino acid permease",0.46
same,fold_change,"gene Sca_0984, hypothetical protein",0.41
same,fold_change,"gene Sca_1053, hypothetical protein",0.47
same,fold_change,"gene Sca_1134, hypothetical protein",0.45
same,fold_change,"gene Sca_1194, hypothetical protein",0.48
same,fold_change,gene Sca_1195,0.43
same,fold_change,"gene Sca_1364 (leuS''), leucyl-tRNA synthetase (fragment 2)",0.47
same,fold_change,"gene Sca_1365 (leuS'), leucyl-tRNA synthetase (fragment 1)",0.4
same,fold_change,"gene Sca_1388, hypothetical protein",0.46
same,fold_change,"gene Sca_1421, hypothetical protein",0.46
same,fold_change,"gene Sca_1425, hypothetical protein",0.45
same,fold_change,"gene Sca_1427, hypothetical protein",0.41
same,fold_change,"gene Sca_1433, hypothetical protein",0.44
same,fold_change,"gene Sca_1450, hypothetical protein",0.41
same,fold_change,"gene Sca_1584, hypothetical protein",0.47
same,fold_change,"gene Sca_1777, hypothetical protein",0.41
same,fold_change,"gene Sca_1794, hypothetical protein",0.43
same,fold_change,"gene Sca_1832, hypothetical protein",0.42
same,fold_change,"gene Sca_1870, hypothetical protein",0.45
same,fold_change,"gene Sca_1880, hypothetical protein",0.46
same,fold_change,"gene Sca_1922, putative integral membrane efflux protein",0.41
same,fold_change,"gene Sca_1980, putative L-serine dehydratase beta chain",0.42
same,fold_change,"gene Sca_1997, hypothetical protein",0.49
same,fold_change,"gene Sca_2043, hypothetical protein",0.46
same,fold_change,"gene Sca_2184, hypothetical protein",0.4
same,fold_change,"gene Sca_2345, hypothetical protein",0.41
same,fold_change,"gene Sca_2346, putative capsular polysaccharide biosynthesis protein",0.41
same,fold_change,"gene Sca_2352, hypothetical protein",0.48
same,fold_change,gene Sca_2411,0.47
same,fold_change,"gene apbA, putative 2-dehydropantoate 2-reductase",0.47
same,fold_change,"gene aspS, aspartyl-tRNA synthetase",0.43
same,fold_change,"gene atpD, F0F1 ATP synthase subunit beta",0.41
same,fold_change,"gene capB, capsular polysaccharide biosynthesis protein",0.43
same,fold_change,"gene ctaB, protoheme IX farnesyltransferase",0.41
same,fold_change,"gene cysE, serine acetyltransferase",0.46
same,fold_change,"gene deoD, purine nucleoside phosphorylase",0.48
same,fold_change,"gene engB (SCA_1279), ribosome biogenesis GTP-binding protein YsxC",0.47
same,fold_change,"gene fbp, putative fructose-bisphosphatase",0.41
same,fold_change,"gene fecB, putative ferrichrome ABC transporter (binding protein)",0.42
same,fold_change,"gene fruB, putative fructose 1-phosphate kinase",0.42
same,fold_change,"gene gcvH (gcdH), glycine cleavage system protein H",0.45
same,fold_change,"gene gcvPB' (gcvPB''), glycine dehydrogenase [decarboxylating] subunit 2(fragment 1)",0.43
same,fold_change,"gene gntR, putative gluconate operon transcriptional repressor",0.47
same,fold_change,"gene gudB, NAD-specific glutamate dehydrogenase",0.47
